Patent US20040067167A1, “Methods and apparatus for optophoretic diagnosis of cells and particles” (Genoptix, Inc., priority 2002, published 2004)

Tests used:
HL60 cells = test: Time-of-flight (TOF) optophoretic testing of HL60 cells treated with DMSO; format: cell-based; conditions: 1% DMSO, after 40 hours of treatment, compared to non-treated HL60 cells (FIGS. 44 and 45)
Description: The system includes multiple, preferably three, detecting positions, 31, 32 and 33. The detecting positions 31, 32, 33, may be associated with detection of times, e.g., t1, t2, t3. The times may be absolute, relative or elapsed. The two outermost detecting positions, i.e., 31 and 33 in this example, are separated by a distance L. A representative length L when detecting biological particles would be substantially 200 microns or less. The difference between the first two detecting positions t1, t2, define a time interval T1. T1 may also be associated with a first detection zone corresponding to the motion of the particle 36 through the zone T1. The second and third detecting positions t2, t3, define a second detection zone T2. The second detection zone also corresponds to the time difference between t2, t3. In one preferred embodiment, the distance between t2 t3 is equal to the distance between t1 t2. In operation, the cell or particle 36 flows from the inlet 22 through the channel 20 through the outlet 24. For biological detection purposes, representative particle speeds are from substantially 50 to substantially 200 microns per second. As the cell or particle 36 flows through the first detection zone T1, the time-of-flight through that zone is measured, that is the time it takes for the cell or particle 36 to move from position t1 to t2. An optical gradient 38 is disposed within zone T2. […]

T cells = test: Time-of-flight (TOF) optophoretic testing of activated and unactivated T cells; format: cell-based; conditions: T cells activated with 0.5 μml PMA and 50 ng/ml ionomycin together, overnight, compared to unstimulated T cells (FIG. 46)
Description: The system includes multiple, preferably three, detecting positions, 31, 32 and 33. The detecting positions 31, 32, 33, may be associated with detection of times, e.g., t1, t2, t3. The times may be absolute, relative or elapsed. The two outermost detecting positions, i.e., 31 and 33 in this example, are separated by a distance L. A representative length L when detecting biological particles would be substantially 200 microns or less. The difference between the first two detecting positions t1, t2, define a time interval T1. T1 may also be associated with a first detection zone corresponding to the motion of the particle 36 through the zone T1. The second and third detecting positions t2, t3, define a second detection zone T2. The second detection zone also corresponds to the time difference between t2, t3. In one preferred embodiment, the distance between t2 t3 is equal to the distance between t1 t2.
In operation, the cell or particle 36 flows from the inlet 22 through the channel 20 through the outlet 24. For biological detection purposes, representative particle speeds are from substantially 50 to substantially 200 microns per second. As the cell or particle 36 flows through the first detection zone T1, the time-of-flight through that zone is measured, that is the time it takes for the cell or particle 36 to move from position t1 to t2. An optical gradient 38 is disposed within zone T2. […]

SMILES: C[S+](C)[O-] [DMSO, dimethyl sulfoxide]
- TOF ratio t2/t1 (HL60 cells): lower TOF ratio

SMILES: CCCCCCCCCCCCCC(=O)O[C@@H]1[C@@H](C)[C@@]2(O)[C@@H](C=C(CO)C[C@]3(O)C(=O)C(C)=C[C@@H]23)[C@@H]2C(C)(C)[C@]12OC(C)=O [PMA, Phorbol mystirate acetate]
- TOF ratio t2/t1 (T cells): lower TOF ratio

SMILES: C[C@H](CCC(=O)O)C[C@H](C)C[C@H](C)C(=O)/C=C(\O)[C@H](C)C[C@H](C)C/C=C/[C@@H](C)[C@@H](O)[C@@H](C)[C@@H](O)C[C@@H]1CC[C@@](C)([C@H]2CC[C@@](C)([C@@H](C)O)O2)O1 [ionomycin]
- TOF ratio t2/t1 (T cells): lower TOF ratio
